Here are results for 22 compounds from patent US9611267B2, “Substituted tricyclic compounds as FGFR inhibitors” (Incyte Corporation, priority 2012, dated 2017).

Each structure is given as a SMILES string. Where two headings read alike, the source gives them in different places.

Common to all, as to format: biochemical
In one experiment the target is FGFR2 (Homo sapiens (Human), UniProt P21802). Description: FGFR enzymatic assay (FRET peptide phosphorylation), FGFR2. The note with it: FGFR2 enzyme 0.01 nM, ATP 100 μM. The method, then: (§1) The inhibitor potency of the exemplified compounds was measured in an enzyme assay that measures peptide phosphorylation using FRET measurements to detect product formation. Inhibitors were serially diluted in DMSO and a volume of 0.5 μL was transferred to the wells of a 384-well plate. For FGFR3, a 10 μL volume of FGFR3 enzyme (Millipore) diluted in assay buffer (50 mM HEPES, 10 mM MgCl2, 1 mM EGTA, 0.01% Tween-20, 5 mM DTT, pH 7.5) was added to the plate and pre-incubated for 5-10 minutes. Appropriate controls (enzyme blank and enzyme with no inhibitor) were included on the plate. […] The plate was incubated at 25° C. for 1 hr. […] The plate was allowed to equilibrate for ˜1 hr before scanning the wells on a PheraStar plate reader (BMG Labtech).
FGFR2, sequence (P21802 22-821): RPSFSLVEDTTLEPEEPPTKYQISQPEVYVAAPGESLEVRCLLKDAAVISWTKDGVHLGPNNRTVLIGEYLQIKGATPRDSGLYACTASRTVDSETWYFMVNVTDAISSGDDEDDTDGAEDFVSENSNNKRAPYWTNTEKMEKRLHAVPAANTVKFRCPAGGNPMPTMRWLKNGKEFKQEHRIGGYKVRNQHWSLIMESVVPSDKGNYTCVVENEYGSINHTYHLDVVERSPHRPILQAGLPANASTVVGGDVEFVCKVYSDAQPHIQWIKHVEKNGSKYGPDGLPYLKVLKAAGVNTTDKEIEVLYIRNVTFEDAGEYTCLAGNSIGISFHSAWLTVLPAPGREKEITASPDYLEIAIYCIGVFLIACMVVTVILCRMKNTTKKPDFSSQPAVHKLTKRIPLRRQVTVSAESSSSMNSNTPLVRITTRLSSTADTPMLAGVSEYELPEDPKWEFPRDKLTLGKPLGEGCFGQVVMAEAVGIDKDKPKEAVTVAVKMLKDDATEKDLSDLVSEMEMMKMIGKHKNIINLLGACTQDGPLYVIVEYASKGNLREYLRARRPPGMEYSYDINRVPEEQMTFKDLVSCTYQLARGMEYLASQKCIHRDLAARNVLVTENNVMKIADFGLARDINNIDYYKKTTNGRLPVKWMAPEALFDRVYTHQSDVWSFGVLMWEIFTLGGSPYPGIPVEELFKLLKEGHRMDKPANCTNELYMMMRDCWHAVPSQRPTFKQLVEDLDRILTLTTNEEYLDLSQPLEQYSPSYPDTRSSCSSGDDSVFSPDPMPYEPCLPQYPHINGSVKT
(§2) The enzymes were purchased from Millipore or Invitrogen.
(§3) GraphPad prism3 was used to analyze the data. The IC50 values were derived by fitting the data to the equation for a sigmoidal dose-response with a variable slope. Y=Bottom+(Top−Bottom)/(1+10^((LogIC50−X)*HillSlope)) where X is the logarithm of concentration and Y is the response.

In another experiment the target is FGFR3 (Homo sapiens (Human), UniProt P22607). Description: FGFR enzymatic assay (FRET peptide phosphorylation), FGFR3. The following applies: FGFR3 enzyme (Millipore), ATP 140 μM. On the procedure:
as §1, §3

A further experiment deals with FGFR1 (Homo sapiens (Human), UniProt P11362). Description: FGFR enzymatic assay (FRET peptide phosphorylation), FGFR1. On the procedure: as §1, §2, §3
FGFR1, sequence (P11362 22-822): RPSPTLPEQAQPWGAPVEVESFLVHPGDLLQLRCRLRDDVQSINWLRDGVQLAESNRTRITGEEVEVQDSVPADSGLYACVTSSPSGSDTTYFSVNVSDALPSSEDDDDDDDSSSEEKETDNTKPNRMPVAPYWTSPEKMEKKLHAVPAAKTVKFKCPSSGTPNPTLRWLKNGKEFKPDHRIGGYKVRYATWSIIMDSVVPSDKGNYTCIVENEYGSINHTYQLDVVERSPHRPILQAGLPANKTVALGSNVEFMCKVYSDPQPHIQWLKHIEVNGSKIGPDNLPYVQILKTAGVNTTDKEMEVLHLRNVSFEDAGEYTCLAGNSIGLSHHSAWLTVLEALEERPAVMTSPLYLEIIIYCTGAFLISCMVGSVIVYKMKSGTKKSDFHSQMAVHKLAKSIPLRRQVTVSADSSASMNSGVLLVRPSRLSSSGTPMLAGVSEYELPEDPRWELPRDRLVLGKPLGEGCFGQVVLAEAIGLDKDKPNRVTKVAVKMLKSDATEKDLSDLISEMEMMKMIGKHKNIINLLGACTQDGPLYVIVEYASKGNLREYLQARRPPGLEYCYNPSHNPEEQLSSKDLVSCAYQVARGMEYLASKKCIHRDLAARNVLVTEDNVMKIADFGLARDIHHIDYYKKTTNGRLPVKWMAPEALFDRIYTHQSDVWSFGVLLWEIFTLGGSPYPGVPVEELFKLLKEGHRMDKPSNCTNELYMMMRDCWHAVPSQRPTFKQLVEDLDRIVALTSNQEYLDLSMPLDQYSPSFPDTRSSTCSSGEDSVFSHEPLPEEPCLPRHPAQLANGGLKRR
Where [1] appears, read: FGFR1 enzyme 0.02 nM, ATP 210 μM.

FGFR3, sequence (P22607 23-806): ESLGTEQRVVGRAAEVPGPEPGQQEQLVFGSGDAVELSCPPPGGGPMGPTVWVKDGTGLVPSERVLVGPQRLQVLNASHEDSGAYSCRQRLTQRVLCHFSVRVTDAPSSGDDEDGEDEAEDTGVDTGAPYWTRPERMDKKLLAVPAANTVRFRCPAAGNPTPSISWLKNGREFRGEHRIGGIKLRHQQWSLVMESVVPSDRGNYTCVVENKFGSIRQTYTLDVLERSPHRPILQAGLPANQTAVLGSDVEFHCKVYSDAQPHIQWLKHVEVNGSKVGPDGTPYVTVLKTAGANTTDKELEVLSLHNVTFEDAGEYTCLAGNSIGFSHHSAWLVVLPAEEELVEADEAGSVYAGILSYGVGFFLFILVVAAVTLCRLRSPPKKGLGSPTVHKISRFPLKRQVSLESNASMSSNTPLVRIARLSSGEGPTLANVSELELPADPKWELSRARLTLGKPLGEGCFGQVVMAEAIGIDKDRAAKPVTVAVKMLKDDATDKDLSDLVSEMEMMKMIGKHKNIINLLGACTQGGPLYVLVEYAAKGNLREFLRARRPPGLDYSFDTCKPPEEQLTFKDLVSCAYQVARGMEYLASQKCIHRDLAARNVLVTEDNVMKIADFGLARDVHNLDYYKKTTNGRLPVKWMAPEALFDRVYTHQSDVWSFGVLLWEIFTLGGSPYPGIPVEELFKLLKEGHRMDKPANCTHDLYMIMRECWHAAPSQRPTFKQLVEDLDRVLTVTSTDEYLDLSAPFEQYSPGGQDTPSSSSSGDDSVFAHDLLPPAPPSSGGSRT

As usually defined, the IC50 is the concentration needed to halve the response being measured. Low values mean greater potency, high ones weaker potency. Consider `COc1cc(OC)cc(N2Cc3cnc4[nH]ccc4c3N(C)C2=O)c1` [Example 1, 3-(3,5-Dimethoxyphenyl)-1-methyl-1,3,4,7-tetrahydro-2H-pyrrolo[3′,2′:5,6]pyrido[4,3-d]pyrimidin-2-one], for which the half-maximal inhibitory concentration (IC50) at FGFR2, against FGFR3 and at FGFR1 (setting [1]) was below 100 nM in each case.
For the compound `COc1cc(OC)cc(N2Cc3cnc4[nH]ccc4c3NC2=O)c1` [Example 2, 3-(3,5-Dimethoxyphenyl)-1,3,4,7-tetrahydro-2H-pyrrolo[3′,2′:5,6]pyrido[4,3-d]pyrimidin-2-one], the 50% inhibitory concentration (IC50) at FGFR2, at FGFR3 and at FGFR1 (setting [1]) was below 100 nM in each case.
As for `CCN1C(=O)N(c2cc(OC)cc(OC)c2)Cc2cnc3[nH]ccc3c21` [Example 3, 3-(3,5-Dimethoxyphenyl)-1-ethyl-1,3,4,7-tetrahydro-2H-pyrrolo[3′,2′:5,6]pyrido[4,3-d]pyrimidin-2-one], the IC50 against FGFR2, against FGFR3 and on FGFR1 (setting [1]) was below 100 nM in each case.
Take `COc1cc(OC)cc(N2Cc3cnc4[nH]ccc4c3N(C3CC3)C2=O)c1` [Example 4, 1-Cyclopropyl-3-(3,5-dimethoxyphenyl)-1,3,4,7-tetrahydro-2H-pyrrolo[3′,2′:5,6]pyrido[4,3-d]pyrimidin-2-one]: the IC50 against FGFR2, against FGFR3 and on FGFR1 (setting [1]) was below 100 nM each time.
With `COc1cc(OC)cc(N2Cc3cnc4[nH]ccc4c3N(CC3CC3)C2=O)c1` [Example 5, 1-(Cyclopropylmethyl)-3-(3,5-dimethoxyphenyl)-1,3,4,7-tetrahydro-2H-pyrrolo[3′,2′:5,6]pyrido[4,3-d]pyrimidin-2-one], the IC50 on FGFR2, at FGFR3 and at FGFR1 (setting [1]) was below 100 nM throughout.
`COc1cc(OC)cc(N2Cc3cnc4[nH]ccc4c3N(Cc3ccccc3)C2=O)c1` [Example 6, 1-Benzyl-3-(3,5-dimethoxyphenyl)-1,3,4,7-tetrahydro-2H-pyrrolo[3′,2′:5,6]pyrido[4,3-d]pyrimidin-2-one]: the IC50 on FGFR2, at FGFR3 and on FGFR1 (setting [1]) was below 100 nM each time.
On to `COc1cc(OC)cc(N2Cc3cnc4[nH]c(-c5ccc(N6CCN(C)CC6)cc5)cc4c3N(C)C2=O)c1` [Example 10, 3-(3,5-Dimethoxyphenyl)-1-methyl-8-[4-(4-methylpiperazin-1-yl)phenyl]-1,3,4,7-tetrahydro-2H-pyrrolo[3′,2′:5,6]pyrido[4,3-d]pyrimidin-2-one], for which the IC50 against FGFR2, against FGFR3 and against FGFR1 (setting [1]) was below 100 nM throughout.
As to `COc1cc(OC)cc(N2Cc3cnc4[nH]c(-c5cnn(C)c5)cc4c3N(C)C2=O)c1` [Example 11, 3-(3,5-Dimethoxyphenyl)-1-methyl-8-(1-methyl-1H-pyrazol-4-yl)-1,3,4,7-tetrahydro-2H-pyrrolo[3′,2′:5,6]pyrido[4,3-d]pyrimidin-2-one], the half-inhibitory concentration (IC50) at FGFR2, against FGFR3 and against FGFR1 (setting [1]) was below 100 nM in each case.
As to `CNC(=O)c1cc2c3c(cnc2[nH]1)CN(c1cc(OC)cc(OC)c1)C(=O)N3C` [Example 12, 3-(3,5-Dimethoxyphenyl)-N,1-dimethyl-2-oxo-2,3,4,7-tetrahydro-1H-pyrrolo[3′,2′:5,6]pyrido[4,3-d]pyrimidine-8-carboxamide], the IC50 against FGFR2, at FGFR3 and against FGFR1 (setting [1]) was below 100 nM each time.
For `COc1cc(OC)c(Cl)c(N2Cc3cnc4[nH]c(-c5cnn(C)c5)cc4c3N(C)C2=O)c1` [Example 13, 3-(2-Chloro-3,5-dimethoxyphenyl)-1-methyl-8-(1-methyl-1H-pyrazol-4-yl)-1,3,4,7-tetrahydro-2H-pyrrolo[3′,2′:5,6]pyrido[4,3-d]pyrimidin-2-one], the IC50 against FGFR2, on FGFR3 and against FGFR1 (setting [1]) was below 100 nM each time.
With `COc1cc(OC)c(Cl)c(N2Cc3cnc4[nH]c(-c5cnn(CCO)c5)cc4c3N(C)C2=O)c1` [Example 14, 3-(2-Chloro-3,5-dimethoxyphenyl)-8-[1-(2-hydroxyethyl)-1H-pyrazol-4-yl]-1-methyl-1,3,4,7-tetrahydro-2H-pyrrolo[3′,2′:5,6]pyrido[4,3-d]pyrimidin-2-one], the IC50 against FGFR2, on FGFR3 and at FGFR1 (setting [1]) was below 100 nM each time.
For `COc1cc(OC)c(Cl)c(N2Cc3cnc4[nH]c(-c5ccnn5C)cc4c3N(C)C2=O)c1` [Example 15, 3-(2-Chloro-3,5-dimethoxyphenyl)-1-methyl-8-(1-methyl-1H-pyrazol-5-yl)-1,3,4,7-tetrahydro-2H-pyrrolo[3′,2′:5,6]pyrido[4,3-d]pyrimidin-2-one], the IC50 against FGFR2, against FGFR3 and against FGFR1 (setting [1]) was below 100 nM throughout.
Consider `COc1cc(OC)c(Cl)c(N2Cc3cnc4[nH]c(C#N)cc4c3N(C)C2=O)c1` [Example 16, 3-(2-Chloro-3,5-dimethoxyphenyl)-1-methyl-2-oxo-2,3,4,7-tetrahydro-1H-pyrrolo[3′,2′:5,6]pyrido[4,3-d]pyrimidine-8-carbonitrile], for which the concentration for half-maximal inhibition (IC50) at FGFR2, at FGFR3 and on FGFR1 (setting [1]) was below 100 nM throughout.
`COc1cc(OC)cc(N2Cc3cnc4[nH]c(C5=CCN(C)CC5)cc4c3N(C)C2=O)c1` [Example 17, 3-(3,5-Dimethoxyphenyl)-1-methyl-8-(1-methyl-1,2,3,6-tetrahydropyridin-4-yl)-1,3,4,7-tetrahydro-2H-pyrrolo[3′,2′:5,6]pyrido[4,3-d]pyrimidin-2-one]: the IC50 at FGFR2, at FGFR3 and against FGFR1 was below 100 nM throughout.
For `COc1cc(OC)cc(N2Cc3cnc4[nH]c(C5CCN(C)CC5)cc4c3N(C)C2=O)c1` [Example 18, 3-(3,5-Dimethoxyphenyl)-1-methyl-8-(1-methylpiperidin-4-yl)-1,3,4,7-tetrahydro-2H-pyrrolo[3′,2′:5,6]pyrido[4,3-d]pyrimidin-2-one], the IC50 against FGFR2, against FGFR3 and at FGFR1 (setting [1]) was below 100 nM throughout.
Take `COc1cc(OC)cc(N2Cc3cnc4[nH]c(C(=O)N(C)C)cc4c3N(C)C2=O)c1` [Example 19, 3-(3,5-Dimethoxyphenyl)-N,N,1-trimethyl-2-oxo-2,3,4,7-tetrahydro-1H-pyrrolo[3′,2′:5,6]pyrido[4,3-d]pyrimidine-8-carboxamide]: the IC50 at FGFR2, at FGFR3 and against FGFR1 (setting [1]) was below 100 nM in each case.
`COc1cc(OC)cc(N2Cc3cnc4[nH]c(C(=O)N5CC(O)C5)cc4c3N(C)C2=O)c1` [Example 20, 3-(3,5-Dimethoxyphenyl)-8-[(3-hydroxyazetidin-1-yl)carbonyl]-1-methyl-1,3,4,7-tetrahydro-2H-pyrrolo[3′,2′:5,6]pyrido[4,3-d]pyrimidin-2-one]: the IC50 against FGFR2, at FGFR3 and against FGFR1 (setting [1]) was below 100 nM each time.
Turning to `COc1cc(OC)cc(N2Cc3cnc4[nH]c(C(=O)N5CCC(O)C5)cc4c3N(C)C2=O)c1` (stereo not drawn) [Example 21, 3-(3,5-Dimethoxyphenyl)-8-[(3-hydroxypyrrolidin-1-yl)carbonyl]-1-methyl-1,3,4,7-tetrahydro-2H-pyrrolo[3′,2′:5,6]pyrido[4,3-d]pyrimidin-2-one], the IC50 at FGFR2, on FGFR3 and against FGFR1 (setting [1]) was below 100 nM throughout.
For `COc1cc(OC)cc(N2Cc3cnc4[nH]c(C(=O)N5CCN(C)CC5)cc4c3N(C)C2=O)c1` [Example 22, 3-(3,5-Dimethoxyphenyl)-1-methyl-8-[(4-methylpiperazin-1-yl)carbonyl]-1,3,4,7-tetrahydro-2H-pyrrolo[3′,2′:5,6]pyrido[4,3-d]pyrimidin-2-one], the IC50 against FGFR2, against FGFR3 and against FGFR1 (setting [1]) was below 100 nM throughout.
Turning to `COc1cc(OC)c(F)c(N2Cc3cnc4c(c3N(C)C2=O)C2(CC2)C(=O)N4)c1F` [Example 59, 3′-(2,6-Difluoro-3,5-dimethoxyphenyl)-1′-methyl-4′,7′-dihydrospiro[cyclopropane-1,9′-pyrrolo[3′,2′:5,6]pyrido[4,3-d]pyrimidine]-2′,8′(1′H,3′H)-dione], the IC50 at FGFR2 and on FGFR3 was below 100 nM in each case.
As for `COc1cc(OC)c(F)c(N2Cc3cnc4c(c3N(c3cccc(F)c3F)C2=O)CC(=O)N4)c1F` [Example 77, 3-(2,6-difluoro-3,5-dimethoxyphenyl)-1-(2,3-difluorophenyl)-3,4,7,9-tetrahydro-1H-pyrrolo[3′,2′:5,6]pyrido[4,3-d]pyrimidine-2,8-dione], the half-maximal inhibitory concentration (IC50) against FGFR2 and against FGFR3 was below 100 nM throughout.
Turning to `COc1cc(OC)c(F)c(N2Cc3cnc4c(c3N(c3ccc(C#N)cc3)C2=O)CC(=O)N4)c1F` [Example 122, 4-[3-(2,6-difluoro-3,5-dimethoxyphenyl)-2,8-dioxo-2,3,4,7,8,9-hexahydro-1H-pyrrolo[3′,2′:5,6]pyrido[4,3-d]pyrimidin-1-yl]benzonitrile], the IC50 against FGFR2 and at FGFR3 was below 100 nM each time.
